Patent publication EP2266963A1, “Fluorogenic peptidase substrate” (ECOLE NORMALE SUPERIEURE DE LYON, priority 2009, dated 2010)

Experiments:
leucyl aminopeptidase [1] = assay: Time-dependent fluorescence signal evolution with pure enzyme in LB medium, with or without inhibitor; type: biochemical; settings: 37°C
Procedure: Scheme 3 presents the reaction cascade initiated by cleavage of the substrate 1 or 2 by a target peptidase. [drawing 5] • Figure 1 (ordinate in arbitrary fluorescence units a.u.) represents the emission spectra (λexc = 365 nm) of substrate 2 (20 µM) before (curve a) and after incubation with leucyl aminopeptidase for 1 h (curve b) at 25 °C in Tris-HCl buffer. The experiment was monitored with a standard multi-well plate fluorescence spectrophotometer (Spectramax Gemini by Molecular Devices). • Figure 2 presents a fluorogenic test (λexc = 365 nm, λem = 495 nm) at 25 °C for the activity of leucyl aminopeptidase in Tris-HCl (25 mM, pH 7.4) using 38 µM of substrate 1 or 2 , and 0.02 U mL^-1 of leucyl aminopeptidase. The following curves for time-dependent fluorescence signal evolution were obtained : (a) substrate 2 with enzyme, (b) substrate 1 with enzyme (c) substrate 2 without enzyme but with added bovine serum albumin (0.1 mg mL^-1), (d) substrate 1 without enzyme but with added bovine serum albumin (0.1 mg mL^-1). • Figure 3 presents the time-dependent signal evolution obtained with pure enzyme in complex LB (Lysogeny broth) medium (from Fisher, "LB Broth Lennox", ref 240230) rather than in pure buffer (TRIS-HCl).
(§1) Substrate 2 concentration : 6 µM; enzyme : leucyle aminopeptidase (0.01 U); 37°C; LB medium; emission wavelength : 495 nm; Spectramax Gemini from Molecular Device.
Figure 4 presents the time-dependent signal evolution obtained with pure enzyme in LB medium in the presence or absence of a standard aminopeptidase inhibitor (bestatine).
Substrate 2 concentration : 6 µM; enzyme : leucyle aminopeptidase (0.01 U); inhibitor concentration : 10 nM; 37°C; LB medium; emission wavelength : 495 nm ;

leucyl aminopeptidase [2] = assay: Fluorogenic test for leucyl aminopeptidase activity in Tris-HCl buffer; type: biochemical; settings: Figure 2 curve a; substrate with enzyme; TRIS-HCl buffer 25 mM pH 7.4; 38 µM substrate; 0.02 U mL^-1 enzyme; 25 °C; λexc 365 nm, λem 495 nm
Procedure: Column chromatography was performed using silicagel Si 60 (40-63 µm). ^1H and ^13C NMR spectra were recorded at 200.13 MHz, 50.13 MHz, respectively. Chemical shifts (δ) are reported in ppm (s = singlet, d= doublet, t = triplet, m = multiplet, br = broad) and quoted with reference to tetramethyl silane or from solvent signals. NMR coupling constants (J) are reported in Hertz. Fluorescence assays were carried out in black roundbottom polypropylene 96-well-plates (NUNCLONE, Nunc Inc.) and recorded on a microplate spectrofluorimeter (Gemini XPS by Molecular Devices).
Scheme 3 presents the reaction cascade initiated by cleavage of the substrate 1 or 2 by a target peptidase. [drawing 5] • Figure 1 (ordinate in arbitrary fluorescence units a.u.) represents the emission spectra (λexc = 365 nm) of substrate 2 (20 µM) before (curve a) and after incubation with leucyl aminopeptidase for 1 h (curve b) at 25 °C in Tris-HCl buffer. The experiment was monitored with a standard multi-well plate fluorescence spectrophotometer (Spectramax Gemini by Molecular Devices). • Figure 2 presents a fluorogenic test (λexc = 365 nm, λem = 495 nm) at 25 °C for the activity of leucyl aminopeptidase in Tris-HCl (25 mM, pH 7.4) using 38 µM of substrate 1 or 2 , and 0.02 U mL^-1 of leucyl aminopeptidase. […]

[3] = Spontaneous degradation of substrate in LB medium without enzyme or cells (background fluorescence signal); type: physicochemical; settings: 37°C, emission 495 nm
Procedure: as §1
(§2) Substrate 2 concentration : 6 µM; bacterial cell line : DH5a (Invitrogen); 37°C; LB medium; emission wavelength : 495 nm. Substrate 2 is added during the exponential growth phase at an absorbance of 0.6 to 0.8.

[4] = system: bacterial cell line : DH5a; assay: Incubation of substrate with bacterial cells at wild-type aminopeptidase level in LB medium; type: cell-based, E-Coli; settings: Figure 5, 6 µM substrate added in exponential growth phase (absorbance 0.6 to 0.8), 37°C, emission 495 nm
Procedure: as §2

| Compound | effect of inhibitor on signal evolution (leucyl aminopeptidase [1]; Figure 4, inhibitor 10 nM, 6 µM substrate 2, enzyme 0.01 U) | time at which fluorescence signal reaches a plateau (leucyl aminopeptidase [2]) | time at which fluorescence signal reaches a plateau (leucyl aminopeptidase [1]; Figure 3, LB+E+substrate 2, 6 µM substrate, enzyme 0.01 U, emission 495 nm) | time at which signal reaches the same level as the uninhibited reaction (leucyl aminopeptidase [1]; Figure 4, LB+E+I+substrate 2, inhibitor bestatine 10 nM, 6 µM substrate, enzyme 0.01 U) | time at which fluorescence signal reaches a plateau (uninhibited reaction) (leucyl aminopeptidase [1]; Figure 4, LB+E+substrate 2, no inhibitor, 6 µM substrate, enzyme 0.01 U, emission 495 nm) | time at which signal plateaus in the absence of enzyme ([3]; Figure 3, LB+substrate 2, 6 µM substrate) | time at which signal reaches a plateau through slow degradation of the substrate ([3]; Figure 5, LB + substrate 2, no cells, 6 µM substrate) | time at which signal reaches a plateau on incubation with cells [4] |
| --- | --- | --- | --- | --- | --- | --- | --- | --- |
| CC(C)C[C@H](NC(=O)[C@@H](O)[C@H](N)Cc1ccccc1)C(=O)O [inhibitor (I), bestatine, reference compound] | a delay in signal evolution can be detected |  |  |  |  |  |  |  |
| CC(C)C[C@H](N)C(=O)NCCC(C)(C)C(=O)OCOc1ccccc1-c1nc2ccccc2c(=O)[nH]1 [substrate 2] |  | 0.5 h | approximately 1 hour | 2.5 h | about 1.5 h | about 12 hours | 10 h | 2.5 h |
